Values quoted from earlier work in PubChem BioAssay AID1259409 (Chemical Carcinogenesis Research Information System (CCRIS), 2018).

Test system: rodent chemically induced tumor inhibition, incidence and multiplicity
Test: CCRIS tumor inhibitor studies
Details: Route [Inhibitor]: ORAL, Species: HAMSTER

CC1=C(/C=C/C(C)=C/C=C/C(C)=C/C(=O)Nc2ccc(O)cc2)C(C)(C)CCC1
tumour outcome (control, treated, inhibition, significance) (Carcinogen: N-NITROSOBIS(2-OXOPROPLYL)AMINE [60599-38-4], DL-ETHIONINE [67-21-0], L-METHIONINE [63-68-3], Carcinogen: N-NITROSOBIS(2-OXOPROPLYL)AMINE [60599-38-4], DL-ETHIONINE [67-21-0], L-METHIONINE [63-68-3], Dose [Inhibitor]: 0, 0.01% IN DIET FOR 55 D BEGINNING ON DAY 50, 1 WK POST LAST CARCINOGEN DOSE (STUDY DURATION: 105 D), Target Tissue: Type of Lesion: PANCREATIC DUCT, CARCINOMA, Dose [Carcinogen]: 50 MG/KG BOP ONCE ON DAY 0, THEN 20 MG/KG TWICE ON DAYS 18 AND 32, 500 MG/KG DL-ETHIONINE 1X/D FOR 4 D BEGINNING ON DAY, Dose [Carcinogen]: 50 MG/KG BOP ONCE ON DAY 0, THEN 20 MG/KG TWICE ON DAYS 18 AND 32, 500 MG/KG DL-ETHIONINE 1X/D FOR 4 D BEGINNING ON DAY, Promoter: CHOLINE-DEFICIENT DIET): 17/17 (100%), 17/17 (100%), 0%, not significant | tumour outcome (control, treated, inhibition, significance) (Carcinogen: N-NITROSOBIS(2-OXOPROPLYL)AMINE [60599-38-4], DL-ETHIONINE [67-21-0], L-METHIONINE [63-68-3], Carcinogen: N-NITROSOBIS(2-OXOPROPLYL)AMINE [60599-38-4], DL-ETHIONINE [67-21-0], L-METHIONINE [63-68-3], Dose [Inhibitor]: 0, 0.04% IN DIET FOR 55 D BEGINNING ON DAY 50, 1 WK POST LAST CARCINOGEN DOSE (STUDY DURATION: 105 D), Target Tissue: Type of Lesion: LIVER: INTRAHEPATIC CHOLANGIOCARCINOMA, Dose [Carcinogen]: 50 MG/KG BOP ONCE ON DAY 0, THEN 20 MG/KG TWICE ON DAYS 18 AND 32, 500 MG/KG DL-ETHIONINE 1X/D FOR 4 D BEGINNING ON DAY, Dose [Carcinogen]: 50 MG/KG BOP ONCE ON DAY 0, THEN 20 MG/KG TWICE ON DAYS 18 AND 32, 500 MG/KG DL-ETHIONINE 1X/D FOR 4 D BEGINNING ON DAY, Promoter: CHOLINE-DEFICIENT DIET): 7/17 (41%), 14/15 (93%), -127%, p<0.01 | tumour outcome (control, treated, inhibition, significance) (Carcinogen: N-NITROSOBIS(2-OXOPROPLYL)AMINE [60599-38-4], DL-ETHIONINE [67-21-0], L-METHIONINE [63-68-3], Carcinogen: N-NITROSOBIS(2-OXOPROPLYL)AMINE [60599-38-4], DL-ETHIONINE [67-21-0], L-METHIONINE [63-68-3], Dose [Inhibitor]: 0, 0.04% IN DIET FOR 55 D BEGINNING ON DAY 50, 1 WK POST LAST CARCINOGEN DOSE (STUDY DURATION: 105 D), Target Tissue: Type of Lesion: PANCREATIC DUCT, CARCINOMA, Dose [Carcinogen]: 50 MG/KG BOP ONCE ON DAY 0, THEN 20 MG/KG TWICE ON DAYS 18 AND 32, 500 MG/KG DL-ETHIONINE 1X/D FOR 4 D BEGINNING ON DAY, Dose [Carcinogen]: 50 MG/KG BOP ONCE ON DAY 0, THEN 20 MG/KG TWICE ON DAYS 18 AND 32, 500 MG/KG DL-ETHIONINE 1X/D FOR 4 D BEGINNING ON DAY, Promoter: CHOLINE-DEFICIENT DIET): 17/17 (100%), 15/15 (100%), 0%, not significant | tumour outcome (control, treated, inhibition, significance) (Carcinogen: N-NITROSOBIS(2-OXYPROPYL)AMINE, 60599-38-4, Dose [Inhibitor]: 0.05, 0.1 OR 0.2 MILLIMOLAR/KG DIET FOR 32 WK STARTING 1 WK AFTER THE CARCINOGEN DOSE (STUDY DURATION: 33 WK), Strain/Sex: SYRIAN/FEMALE, Target Tissue: Type of Lesion: COMMON DUCT: ADENOMA, Dose [Carcinogen]: 40 MG/KG ONCE, Promoter: NONE USED): 4/10 (40%), 26/30 (87%), -118%, p<0.025 | tumour outcome (control, treated, inhibition, significance) (Carcinogen: N-NITROSOBIS(2-OXYPROPYL)AMINE, 60599-38-4, Dose [Inhibitor]: 0.05, 0.1 OR 0.2 MILLIMOLAR/KG DIET FOR 32 WK STARTING 1 WK AFTER THE CARCINOGEN DOSE (STUDY DURATION: 33 WK), Strain/Sex: SYRIAN/FEMALE, Target Tissue: Type of Lesion: GALL BLADDER: ADENOMA, Dose [Carcinogen]: 40 MG/KG ONCE, Promoter: NONE USED): 6/10 (60%), 29/30 (97%), -62%, not significant | tumour outcome (control, treated, inhibition, significance) (Carcinogen: N-NITROSOBIS(2-OXYPROPYL)AMINE, 60599-38-4, Dose [Inhibitor]: 0.05, 0.1 OR 0.2 MILLIMOLAR/KG DIET FOR 32 WK STARTING 1 WK AFTER THE CARCINOGEN DOSE (STUDY DURATION: 33 WK), Strain/Sex: SYRIAN/FEMALE, Target Tissue: Type of Lesion: LIVER: ADENOMA, Dose [Carcinogen]: 40 MG/KG ONCE, Promoter: NONE USED): 6/10 (60%), 10/30 (33%), 45%, not significant | tumour outcome (control, treated, inhibition, significance) (Carcinogen: N-NITROSOBIS(2-OXYPROPYL)AMINE, 60599-38-4, Dose [Inhibitor]: 0.05, 0.1 OR 0.2 MILLIMOLAR/KG DIET FOR 32 WK STARTING 1 WK AFTER THE CARCINOGEN DOSE (STUDY DURATION: 33 WK), Strain/Sex: SYRIAN/FEMALE, Target Tissue: Type of Lesion: LUNG: ADENOMA, Dose [Carcinogen]: 40 MG/KG, ONCE, ONE WK PRIOR TO START OF AGENT TREATMENT, Promoter: NONE USED): 3/10 (30%), 18/30 (60%), -100%, not significant | tumour outcome (control, treated, inhibition, significance) (Carcinogen: N-NITROSOBIS(2-OXYPROPYL)AMINE, 60599-38-4, Dose [Inhibitor]: 0.05, 0.1 OR 0.2 MILLIMOLAR/KG DIET FOR 32 WK STARTING 1 WK AFTER THE CARCINOGEN DOSE (STUDY DURATION: 33 WK), Strain/Sex: SYRIAN/FEMALE, Target Tissue: Type of Lesion: PANCREAS: ADENOMA, Dose [Carcinogen]: 40 MG/KG ONCE, Promoter: NONE USED): 10/10 (100%), 30/30 (100%), 0%, not significant | tumour outcome (control, treated, inhibition, significance) (Carcinogen: N-NITROSOBIS(2-OXYPROPYL)AMINE, 60599-38-4, Dose [Inhibitor]: 0.05, 0.1 OR 0.2 MILLIMOLAR/KG DIET FOR 32 WK STARTING 1 WK AFTER THE CARCINOGEN DOSE (STUDY DURATION: 33 WK), Strain/Sex: SYRIAN/FEMALE, Target Tissue: Type of Lesion: PANCREAS: CARCINOMA, Dose [Carcinogen]: 40 MG/KG ONCE, Promoter: NONE USED): 4/10 (40%), 16/30 (53%), -33%, not significant | tumour outcome (control, treated, inhibition, significance) (Carcinogen: N-NITROSOBIS(2-OXYPROPYL)AMINE, 60599-38-4, Dose [Inhibitor]: 0.05, 0.1 OR 0.2 MILLIMOLAR/KG DIET FOR 32 WK STARTING 1 WK AFTER THE CARCINOGEN DOSE (STUDY DURATION: 33 WK), Strain/Sex: SYRIAN/MALE, Target Tissue: Type of Lesion: COMMON DUCT: ADENOMA, Dose [Carcinogen]: 40 MG/KG ONCE, Promoter: NONE USED): 4/12 (33%), 20/21 (95%), -188%, not significant | tumour outcome (control, treated, inhibition, significance) (Carcinogen: N-NITROSOBIS(2-OXYPROPYL)AMINE, 60599-38-4, Dose [Inhibitor]: 0.05, 0.1 OR 0.2 MILLIMOLAR/KG DIET FOR 32 WK STARTING 1 WK AFTER THE CARCINOGEN DOSE (STUDY DURATION: 33 WK), Strain/Sex: SYRIAN/MALE, Target Tissue: Type of Lesion: GALL BLADDER: ADENOMA, Dose [Carcinogen]: 40 MG/KG ONCE, Promoter: NONE USED): 3/12 (25%), 20/21 (95%), -280%, not significant | tumour outcome (control, treated, inhibition, significance) (Carcinogen: N-NITROSOBIS(2-OXYPROPYL)AMINE, 60599-38-4, Dose [Inhibitor]: 0.05, 0.1 OR 0.2 MILLIMOLAR/KG DIET FOR 32 WK STARTING 1 WK AFTER THE CARCINOGEN DOSE (STUDY DURATION: 33 WK), Strain/Sex: SYRIAN/MALE, Target Tissue: Type of Lesion: LIVER: ADENOMA, Dose [Carcinogen]: 40 MG/KG ONCE, Promoter: NONE USED): 6/12 (50%), 7/21 (33%), 34%, not significant
